Assay results as given in ChEMBL document CHEMBL1141569, “Synthesis and antimicrobial activity of 3-arylamino-1-chloropropan-2-ols” (Bioorg Med Chem Lett, 2008).
Values after ≈ are worked out from the molar mass of the structure shown.

Assays:
[1] = system: Streptococcus pneumoniae; experiment: Antibacterial activity against Streptococcus pneumoniae by micro-broth dilution assay; type: functional
[2] = system: Staphylococcus aureus; experiment: Antibacterial activity against Staphylococcus aureus by microbroth dilution assay; type: functional
[3] = Toxicity in human erythrocytes assessed as hemolysis upto 250 ug/mL; type: cell-based; conditions: erythrocyte
[4] = system: Aspergillus fumigatus; experiment: Antifungal activity against Aspergillus fumigatus assessed as inhibition per disc by disc diffusion method; type: functional
[5] = system: Aspergillus fumigatus; experiment: Antifungal activity against Aspergillus fumigatus assessed as inhibition per disc by microbroth dilution assay; type: functional
[6] = system: Aspergillus fumigatus; experiment: Antifungal activity against Aspergillus fumigatus assessed as inhibition per disc by percent spore germination inhibition method; type: functional
[7] = system: Aspergillus flavus; experiment: Antifungal activity against Aspergillus flavus assessed as inhibition per disc by disc diffusion method; type: functional
[8] = system: Aspergillus flavus; experiment: Antifungal activity against Aspergillus flavus assessed as inhibition per disc by microbroth dilution assay; type: functional
[9] = system: Aspergillus flavus; experiment: Antifungal activity against Aspergillus flavus assessed as inhibition per disc by percent spore germination inhibition method; type: functional
[10] = system: Aspergillus niger; experiment: Antifungal activity against Aspergillus niger assessed as inhibition per disc by disc diffusion method; type: functional
[11] = system: Aspergillus niger; experiment: Antifungal activity against Aspergillus niger assessed as inhibition per disc by microbroth dilution assay; type: functional
[12] = system: Aspergillus niger; experiment: Antifungal activity against Aspergillus niger assessed as inhibition per disc by percent spore germination inhibition method; type: functional
[13] = system: Candida albicans; experiment: Antifungal activity against Candida albicans assessed as inhibition per disc by percent growth inhibition assay; type: functional
[14] = system: Aspergillus fumigatus; experiment: Antifungal activity against Aspergillus fumigatus at 5.85 ug/mL; type: functional
[15] = system: Salmonella typhi; experiment: Antibacterial activity against Salmonella typhi by microbroth dilution assay; type: functional, Salmonella enterica subsp. enterica serovar Typhi; conditions: Salmonella enterica
[16] = system: Pseudomonas aeruginosa; experiment: Antibacterial activity against Pseudomonas aeruginosa by microbroth dilution assay; type: functional
[17] = system: Salmonella typhi; experiment: Antibacterial activity against Salmonella typhi at 31.25 ug/mL; type: functional, Salmonella enterica subsp. enterica serovar Typhi; conditions: Salmonella enterica
[18] = system: Candida albicans; experiment: Antifungal activity against Candida albicans at 31.25 ug/mL; type: functional
[19] = Toxicity in human erythrocytes assessed as hemolysis upto 4000 ug/mL; type: cell-based; conditions: erythrocyte
[20] = system: Pseudomonas aeruginosa; experiment: Antibacterial activity against Pseudomonas aeruginosa at 31.25 ug/mL; type: functional
[21] = Toxicity in human erythrocytes assessed as hemolysis upto 62.5 ug/mL; type: cell-based, Erythrocyte; conditions: read-out: Activity
[22] = Toxicity in human erythrocytes assessed as hemolysis upto 3.91 ug/mL; type: cell-based, Erythrocyte; conditions: read-out: Activity
[23] = Toxicity in human erythrocytes assessed as hemolysis upto 1.70 ug/mL; type: cell-based, Erythrocyte; conditions: read-out: Activity

## OC(CCl)CNc1ccccc1Cl (stereo unspecified)
[1]
  MIC: 250 µg/mL (≈ 1140 µM)
[2]
  MIC: 500 µg/mL (≈ 2270 µM)
[3]
  Activity: Non-toxic
[4]
  MIC: 11.71 µg
[5]
  MIC: 31.2 µg/mL
[6]
  MIC: 31.2 µg/mL (≈ 142 µM)
[7]
  MIC: 23.43 µg
[8]
  MIC: 63.5 µg/mL
[9]
  MIC: 31.2 µg/mL (≈ 142 µM)
[10]
  MIC: 23.43 µg
[11]
  MIC: 62.5 µg/mL
[12]
  MIC: 62.5 µg/mL (≈ 284 µM)
[13]
  MIC: 250 µg/mL (≈ 1140 µM)
[14]
  inhibition at 5.85 µg/mL: 90%
[15]
  MIC: 250 µg/mL (≈ 1140 µM)
[16]
  MIC: 62.5 µg/mL (≈ 284 µM)

## OC(CCl)CNc1ccc(Cl)cc1Cl (stereo unspecified)
[1]
  MIC: 125 µg/mL (≈ 491 µM)
[2]
  MIC: 500 µg/mL (≈ 1960 µM)
[17]
  inhibition at 31.25 µg/mL: 90%
[3]
  Activity: Non-toxic
[4]
  MIC: 23.43 µg
[5]
  MIC: 62.5 µg/mL
[6]
  MIC: 62.5 µg/mL (≈ 246 µM)
[7]
  MIC: 46.87 µg
[8]
  MIC: 125 µg/mL
[9]
  MIC: 62.5 µg/mL (≈ 246 µM)
[10]
  MIC: 93.75 µg
[11]
  MIC: 125 µg/mL
[12]
  MIC: 125 µg/mL (≈ 491 µM)
[13]
  MIC: 62.5 µg/mL (≈ 246 µM)
[15]
  MIC: 31.3 µg/mL (≈ 123 µM)
[16]
  MIC: 62.5 µg/mL (≈ 246 µM)

## OC(CCl)CNc1cc(Cl)ccc1Cl (stereo unspecified)
[1]
  MIC: 500 µg/mL (≈ 1960 µM)
[2]
  MIC: 250 µg/mL (≈ 982 µM)
[3]
  Activity: Non-toxic
[4]
  MIC: 46.87 µg
[5]
  MIC: 125 µg/mL
[6]
  MIC: 125 µg/mL (≈ 491 µM)
[7]
  MIC: 93.75 µg
[8]
  MIC: 125 µg/mL
[9]
  MIC: 62.5 µg/mL (≈ 246 µM)
[10]
  MIC: 93.75 µg
[11]
  MIC: 125 µg/mL
[12]
  MIC: 125 µg/mL (≈ 491 µM)
[13]
  MIC: 62.5 µg/mL (≈ 246 µM)
[15]
  MIC: 250 µg/mL (≈ 982 µM)
[16]
  MIC: 62.5 µg/mL (≈ 246 µM)

## OC(CCl)CNc1c(Cl)cccc1Cl (stereo unspecified)
[1]
  MIC: 500 µg/mL (≈ 1960 µM)
[2]
  MIC: 500 µg/mL (≈ 1960 µM)
[3]
  Activity: Non-toxic
[4]
  MIC: 46.87 µg
[5]
  MIC: 125 µg/mL
[6]
  MIC: 125 µg/mL (≈ 491 µM)
[7]
  MIC: 46.87 µg
[8]
  MIC: 125 µg/mL
[9]
  MIC: 62.5 µg/mL (≈ 246 µM)
[10]
  MIC: 93.75 µg
[11]
  MIC: 250 µg/mL
[12]
  MIC: 125 µg/mL (≈ 491 µM)
[13]
  MIC: 31.2 µg/mL (≈ 123 µM)
[18]
  inhibition at 31.25 µg/mL: 90%
[15]
  MIC: 500 µg/mL (≈ 1960 µM)
[16]
  MIC: 125 µg/mL (≈ 491 µM)

## OC(CCl)CNc1cccc(Cl)c1 (stereo unspecified)
[1]
  MIC: 500 µg/mL (≈ 2270 µM)
[2]
  MIC: 1000 µg/mL (≈ 4540 µM)
[3]
  Activity: Non-toxic
[4]
  MIC: 23.43 µg
[5]
  MIC: 62.5 µg/mL
[6]
  MIC: 62.5 µg/mL (≈ 284 µM)
[7]
  MIC: 46.87 µg
[8]
  MIC: 62.5 µg/mL
[9]
  MIC: 62.5 µg/mL (≈ 284 µM)
[10]
  MIC: 46.87 µg
[11]
  MIC: 62.5 µg/mL
[12]
  MIC: 62.5 µg/mL (≈ 284 µM)
[13]
  MIC: 125 µg/mL (≈ 568 µM)
[15]
  MIC: 500 µg/mL (≈ 2270 µM)
[16]
  MIC: 250 µg/mL (≈ 1140 µM)

## OC(CCl)CNc1ccc(Cl)cc1 (stereo unspecified)
[1]
  MIC: 500 µg/mL (≈ 2270 µM)
[2]
  MIC: 1000 µg/mL (≈ 4540 µM)
[3]
  Activity: Non-toxic
[19]
  Activity: Non-toxic
[4]
  MIC: 5.85 µg
[5]
  MIC: 15.6 µg/mL
[6]
  MIC: 15.6 µg/mL (≈ 71 µM)
[7]
  MIC: 11.71 µg
[8]
  MIC: 31.2 µg/mL
[9]
  MIC: 15.6 µg/mL (≈ 71 µM)
[10]
  MIC: 23.43 µg
[11]
  MIC: 31.2 µg/mL
[12]
  MIC: 31.2 µg/mL (≈ 142 µM)
[13]
  MIC: 62.5 µg/mL (≈ 284 µM)
[14]
  inhibition at 5.85 µg/mL: 90%
[15]
  MIC: 62.5 µg/mL (≈ 284 µM)
[16]
  MIC: 125 µg/mL (≈ 568 µM)

## OC(CCl)CNc1cccc(Cl)c1Cl (stereo unspecified)
[1]
  MIC: 62.5 µg/mL (≈ 246 µM)
[2]
  MIC: 500 µg/mL (≈ 1960 µM)
[3]
  Activity: Non-toxic
[4]
  MIC: 46.87 µg
[5]
  MIC: 125 µg/mL
[6]
  MIC: 62.5 µg/mL (≈ 246 µM)
[7]
  MIC: 46.87 µg
[8]
  MIC: 125 µg/mL
[9]
  MIC: 125 µg/mL (≈ 491 µM)
[10]
  MIC: 93.75 µg
[11]
  MIC: 125 µg/mL
[12]
  MIC: 125 µg/mL (≈ 491 µM)
[13]
  MIC: 62.5 µg/mL (≈ 246 µM)
[15]
  MIC: 62.5 µg/mL (≈ 246 µM)
[16]
  MIC: 62.5 µg/mL (≈ 246 µM)

## OC(CCl)CNc1ccc(Cl)c(Cl)c1 (stereo unspecified)
[1]
  MIC: 125 µg/mL (≈ 491 µM)
[2]
  MIC: 62.5 µg/mL (≈ 246 µM)
[20]
  inhibition at 31.25 µg/mL: 90%
[3]
  Activity: Non-toxic
[4]
  MIC: 11.71 µg
[5]
  MIC: 31.2 µg/mL
[6]
  MIC: 31.2 µg/mL (≈ 123 µM)
[7]
  MIC: 23.43 µg
[8]
  MIC: 62.5 µg/mL
[9]
  MIC: 31.2 µg/mL (≈ 123 µM)
[10]
  MIC: 46.87 µg
[11]
  MIC: 62.5 µg/mL
[12]
  MIC: 62.5 µg/mL (≈ 246 µM)
[13]
  MIC: 125 µg/mL (≈ 491 µM)
[15]
  MIC: 62.5 µg/mL (≈ 246 µM)
[16]
  MIC: 31.3 µg/mL (≈ 123 µM)

## OC(CCl)CNc1cc(Cl)cc(Cl)c1 (stereo unspecified)
[1]
  MIC: 250 µg/mL (≈ 982 µM)
[2]
  MIC: 125 µg/mL (≈ 491 µM)
[17]
  inhibition at 31.25 µg/mL: 90%
[3]
  Activity: Non-toxic
[4]
  MIC: 46.87 µg
[5]
  MIC: 125 µg/mL
[6]
  MIC: 125 µg/mL (≈ 491 µM)
[7]
  MIC: 46.87 µg
[8]
  MIC: 125 µg/mL
[9]
  MIC: 125 µg/mL (≈ 491 µM)
[10]
  MIC: 93.75 µg
[11]
  MIC: 250 µg/mL
[12]
  MIC: 250 µg/mL (≈ 982 µM)
[13]
  MIC: 31.2 µg/mL (≈ 123 µM)
[18]
  inhibition at 31.25 µg/mL: 90%
[15]
  MIC: 31.3 µg/mL (≈ 123 µM)
[16]
  MIC: 62.5 µg/mL (≈ 246 µM)

## C[C@@H]1[C@H](O)[C@@H](C)/C=C/C=C/C=C/C=C/C=C/C=C/C=C/[C@H](O[C@@H]2O[C@H](C)[C@@H](O)[C@H](N)[C@@H]2O)C[C@@H]2O[C@](O)(C[C@@H](O)C[C@@H](O)[C@H](O)CC[C@@H](O)C[C@@H](O)CC(=O)O[C@H]1C)C[C@H](O)[C@H]2C(=O)O (stereo in doubt) [AMPHOTERICIN B]
[21]
  hemolysis at 62.5 ug/mL: 100%
[22]
  hemolysis at 3.91 ug/mL: 5.52%
[23]
  hemolysis at 1.7 ug/mL: 50%
[4]
  MIC: 0.73 µg
[5]
  MIC: 1.95 µg/mL
[6]
  MIC: 1.95 µg/mL (≈ 2.11 µM)
[7]
  MIC: 0.73 µg
[8]
  MIC: 1.95 µg/mL
[9]
  MIC: 1.95 µg/mL (≈ 2.11 µM)
[10]
  MIC: 0.73 µg
[11]
  MIC: 1.95 µg/mL
[12]
  MIC: 1.95 µg/mL (≈ 2.11 µM)

## CN(C)[C@@H]1C(O)=C(C(N)=O)C(=O)[C@@]2(O)C(O)=C3C(=O)c4c(O)cccc4[C@@](C)(O)[C@H]3C[C@@H]12 [TETRACYCLINE]
[1]
  MIC: 7.9 µg/mL (≈ 17.8 µM)
[2]
  MIC: 7.9 µg/mL (≈ 17.8 µM)
[21]
  hemolysis at 62.5 ug/mL: 11.7%
[22]
  hemolysis at 3.91 ug/mL: 4.26%
[15]
  MIC: 15.6 µg/mL (≈ 35.1 µM)
[16]
  MIC: 7.9 µg/mL (≈ 17.8 µM)
